Laboratory results published in ChEMBL document CHEMBL3112479, “Synthesis and evaluation of the antimicrobial activities of 3-((5-phenyl-1,3,4-oxadiazol-2-yl)methyl)-2-thioxothiazolidin-4-one derivatives” (2014).
≈ marks a conversion by molar mass, not a printed value.

Legend:
[1] = system: Staphylococcus aureus; experiment: Antimicrobial activity against quinolone-resistant Staphylococcus aureus clinical isolate 3519 after 20 hrs by two-fold serial dilution technique; format: functional; details: isolate 3519, 20 h
[2] = system: Staphylococcus aureus; experiment: Antimicrobial activity against quinolone-resistant Staphylococcus aureus clinical isolate 3505 after 20 hrs by two-fold serial dilution technique; format: functional; details: isolate 3505, 20 h
[3] = system: Staphylococcus aureus; experiment: Antimicrobial activity against methicillin-resistant Staphylococcus aureus clinical isolate 3506 after 20 hrs by two-fold serial dilution technique; format: functional; details: isolate 3506, 20 h
[4] = system: Staphylococcus aureus; experiment: Antimicrobial activity against methicillin-resistant Staphylococcus aureus clinical isolate 3167 after 20 hrs by two-fold serial dilution technique; format: functional; details: isolate 3167, 20 h
[5] = system: Candida albicans; experiment: Antimicrobial activity against Candida albicans 7535 after 20 hrs by two-fold serial dilution technique; format: functional; details: Candida albicans, 7535, 20 h
[6] = system: Salmonella typhimurium; experiment: Antimicrobial activity against Salmonella typhimurium 1926 after 20 hrs by two-fold serial dilution technique; format: functional, Salmonella enterica subsp. enterica serovar Typhimurium; details: Salmonella enterica, 1926, 20 h
[7] = system: Salmonella typhimurium; experiment: Antimicrobial activity against Salmonella typhimurium 2421 after 20 hrs by two-fold serial dilution technique; format: functional, Salmonella enterica subsp. enterica serovar Typhimurium; details: Salmonella enterica, 2421, 20 h
[8] = system: Pseudomonas aeruginosa; experiment: Antimicrobial activity against Pseudomonas aeruginosa 2004 after 20 hrs by two-fold serial dilution technique; format: functional; details: Pseudomonas aeruginosa, 2004, 20 h
[9] = system: Pseudomonas aeruginosa; experiment: Antimicrobial activity against Pseudomonas aeruginosa 2742 after 20 hrs by two-fold serial dilution technique; format: functional; details: Pseudomonas aeruginosa, 2742, 20 h
[10] = system: Escherichia coli; experiment: Antimicrobial activity against Escherichia coli CCARM 1356 after 20 hrs by two-fold serial dilution technique; format: functional; details: CCARM 1356, 20 h
[11] = system: Escherichia coli; experiment: Antimicrobial activity against Escherichia coli KCTC 1924 after 20 hrs by two-fold serial dilution technique; format: functional; details: KCTC 1924, 20 h
[12] = system: Streptococcus mutans; experiment: Antimicrobial activity against Streptococcus mutans 3065 after 20 hrs by two-fold serial dilution technique; format: functional; details: Streptococcus mutans, 3065, 20 h
[13] = system: Staphylococcus aureus; experiment: Antimicrobial activity against Staphylococcus aureus 503 after 20 hrs by two-fold serial dilution technique; format: functional; details: Staphylococcus aureus, 503, 20 h
[14] = system: Staphylococcus aureus; experiment: Antimicrobial activity against Staphylococcus aureus 209 after 20 hrs by two-fold serial dilution technique; format: functional; details: Staphylococcus aureus, 209, 20 h
[15] = system: Staphylococcus aureus; experiment: Antimicrobial activity against Staphylococcus aureus RN4220 after 20 hrs by two-fold serial dilution technique; format: functional; details: RN4220, 20 h

Row | Compound | MIC [1] [µg/mL] | MIC [2] [µg/mL] | MIC [3] [µg/mL] | MIC [4] [µg/mL] | MIC [5] [µg/mL] | MIC [6] [µg/mL] | MIC [7] [µg/mL] | MIC [8] [µg/mL] | MIC [9] [µg/mL] | MIC [10] [µg/mL] | MIC [11] [µg/mL] | MIC [12] [µg/mL] | MIC [13] [µg/mL] | MIC [14] [µg/mL] | MIC [15] [µg/mL]
1 | O=C(O)c1ccc(/C=C2\SC(=S)N(Cc3nnc(-c4cccc(Br)c4)o3)C2=O)cc1 | 16 (≈ 31.8 µM) | 16 (≈ 31.8 µM) | 16 (≈ 31.8 µM) | 8 (≈ 15.9 µM) | > 64 | > 128 | > 128 | > 128 | > 128 | > 128 | > 128 | 16 (≈ 31.8 µM) | 16 (≈ 31.8 µM) | 16 (≈ 31.8 µM) | 16 (≈ 31.8 µM)
2 | O=C1CSC(=S)N1Cc1nnc(-c2cccc(Cl)c2)o1 | 32 (≈ 98.2 µM) | 32 (≈ 98.2 µM) | 32 (≈ 98.2 µM) | 32 (≈ 98.2 µM) | 32 (≈ 98.2 µM) | 32 (≈ 98.2 µM) | 64 (≈ 196 µM) | > 128 | > 128 | > 128 | 16 (≈ 49.1 µM) | 16 (≈ 49.1 µM) | 32 (≈ 98.2 µM) | 16 (≈ 49.1 µM) | 16 (≈ 49.1 µM)
3 | O=C(O)c1ccc(/C=C2\SC(=S)N(Cc3nnc(-c4cccc(Cl)c4)o3)C2=O)cc1 | 16 (≈ 34.9 µM) | 16 (≈ 34.9 µM) | 32 (≈ 69.9 µM) | 8 (≈ 17.5 µM) | > 64 | > 128 | > 128 | > 128 | > 128 | > 128 | > 128 | 16 (≈ 34.9 µM) | 16 (≈ 34.9 µM) | 16 (≈ 34.9 µM) | 8 (≈ 17.5 µM)
